{
  "source": "paper PMC3332521",
  "about": "(Scientific Reports, 2012)",
  "key": {"[1]": {"molecular_target": "T1, Nfo (Pseudomonas putida, UniProt F8G0M2)", "T1 sequence (F8G0M2 1-255)": "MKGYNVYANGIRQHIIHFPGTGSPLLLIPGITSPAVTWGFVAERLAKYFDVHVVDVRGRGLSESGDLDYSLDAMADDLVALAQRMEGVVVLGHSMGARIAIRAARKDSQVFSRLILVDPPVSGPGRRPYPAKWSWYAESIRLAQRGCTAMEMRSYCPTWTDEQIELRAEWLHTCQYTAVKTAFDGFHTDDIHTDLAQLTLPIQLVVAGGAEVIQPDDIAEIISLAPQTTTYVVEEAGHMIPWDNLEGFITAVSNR", "experiment": "coupled formate dehydrogenase assay, NADH at […] nm", "assay_type": "biochemical", "conditions": "50 mM Tris-HCl pH 8.0, 20°C, NAD"}, "[2]": {"molecular_target": "T2, Ami (Pseudomonas putida, UniProt F8G0M0)", "T2 sequence (F8G0M0 1-208)": "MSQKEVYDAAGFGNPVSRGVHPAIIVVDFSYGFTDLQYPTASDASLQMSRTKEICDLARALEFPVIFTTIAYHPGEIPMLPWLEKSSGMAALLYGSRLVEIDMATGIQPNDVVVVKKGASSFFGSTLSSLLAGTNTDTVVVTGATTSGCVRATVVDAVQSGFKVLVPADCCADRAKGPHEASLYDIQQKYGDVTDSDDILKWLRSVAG", "experiment": "coupled glutamate dehydrogenase assay, NADPH at […] nm", "assay_type": "biochemical", "conditions": "50 mM Tris-HCl, 1 mM EDTA, 20°C, alpha-ketoglutarate"}, "[3]": {"molecular_target": "T3, Iso (Pseudomonas putida, UniProt F8G0M3)", "T3 sequence (F8G0M3 1-252)": "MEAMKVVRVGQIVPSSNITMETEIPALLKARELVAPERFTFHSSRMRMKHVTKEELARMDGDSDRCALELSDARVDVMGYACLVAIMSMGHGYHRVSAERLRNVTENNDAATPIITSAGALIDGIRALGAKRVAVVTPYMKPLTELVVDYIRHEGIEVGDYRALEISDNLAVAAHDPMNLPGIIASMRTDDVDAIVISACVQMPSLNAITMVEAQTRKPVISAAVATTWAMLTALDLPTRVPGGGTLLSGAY", "experiment": "spectrophotometric, maleate consumption at […] nm", "assay_type": "biochemical", "conditions": "read-out: apparent Km; 50 mM Tris-HCl pH 8.4, 30°C, 1-thioglycerol"}, "[4]": {"substrate": "Oc1ccc(O)nc1", "experiment": "purified protein", "assay_type": "biochemical, Pseudomonas putida", "conditions": "0.025 mM Fe2+, 18.2 mM Tris-HCl pH 8.0, 20°C"}},
  "data": [
    {"molecule": "O=CNC(=O)/C=C\\C(=O)O", "note": "[NFM]", "values": [
      {"measurement": "coupled formate dehydrogenase assay, NADH at 340 nm", "setting": "[1]", "result": "Nfo activity was measured through its production of formate by a coupled reaction"}
    ]},
    {"molecule": "NC(=O)/C=C\\C(=O)O", "note": "[maleamic acid]", "values": [
      {"measurement": "coupled glutamate dehydrogenase assay, NADPH at 340 nm", "setting": "[2]", "result": "Purified Ami (Fig. 3A) transformed maleamic acid to maleic acid"}
    ]},
    {"molecule": "O=C(O)/C=C\\C(=O)O", "note": "[maleate]", "values": [
      {"measurement": "Km", "setting": "[3]", "result": 689, "unit": "µM"}
    ]},
    {"molecule": "Hpo (Pseudomonas putida S16) (protein) MDHVSFTEICLRQLKMSGVHEGERLIVLTQGHERLAYADAFMAAGQRLGAEMYHMRLPSPLPSNGWAVGVTGLADLPGAVEALKNCDMLIDCVFLLFSAEQFEIQAAGTRILTAVEPPELLARMLPFPELREKVSIAAELVENAKDMRITSPHGTDITYKLNTYPTIAEYACTDTPGRWDHWPSGFVFTGGDDDGVDGTIVVAPGDVLLPQNLMVREPITYTIEKGWIVDIRGGLEAQIVNSYMDSFNDPRGKGMSHVGWGMNPHAKWHNFVPGQFTGGMGMELRSFYGNVMFSTGPNNELGGSNDTACHLDIPMRNCSLFLDDTPVVIDGDIVVKEIQLVQR", "values": [
      {"measurement": "Km", "setting": "[4]", "result": 0.168, "unit": "µM"}
    ]}
  ]
}
